Measurements published in EPA's CvTdb concentration-time database.

Legend:
[1] = system: Rat; test: concentration in kidney after dosing; conditions: 1 h; dosed: Perfluorodecanoic acid; 10 mg/kg; oral; Female; Harlan Sprague Dawley
[2] = system: Rat; test: concentration in kidney after dosing; conditions: 3360 h; dosed: Perfluorodecanoic acid; 10 mg/kg; oral; Female; Harlan Sprague Dawley
[3] = system: Rat; test: concentration in plasma after dosing; conditions: 10 min; dosed: Di-n-butyl phthalate; 50 mg/kg; oral; Male; Sprague-Dawley
[4] = system: Rat; test: concentration in plasma after dosing; conditions: 0.25 h; dosed: Di-n-butyl phthalate; 100 mg/kg; oral; Male; Sprague-Dawley
[5] = system: Rat; test: concentration in plasma after dosing; conditions: 4 h; dosed: Di-n-butyl phthalate; 100 mg/kg; oral; Male; Sprague-Dawley
[6] = system: Rat; test: concentration in plasma after dosing; conditions: dosed: dichloroacetic acid, 100 mg/kg, oral, Male, F344
[7] = system: Rat; test: concentration in plasma after dosing; conditions: 0.25 h; dosed: dichloroacetic acid; 10 mg/kg; oral; Male; Harlan Sprague Dawley
[8] = system: Rat; test: concentration in plasma after dosing; conditions: dosed: Wyeth-14643, 2.0 mg/kg, iv, Male, Sprague-Dawley
[9] = system: Rat; test: concentration in heart after dosing; conditions: 3 h; dosed: Bis 2-Chloroethoxy Methane; 20 mg/kg; iv; Male; F344
[10] = system: rat; test: concentration in blood after dosing; conditions: dosed: p-tert-octylphenol, Sprague-Dawley
[11] = system: Rat; test: concentration in kidney after dosing; conditions: 3 h; dosed: Fluorotelomer alcohol 8+2; 80 mg/kg; oral; Female; Harlan Sprague Dawley
[12] = system: Rat; test: concentration in kidney after dosing; conditions: 3 h; dosed: Fluorotelomer alcohol 8+2; 24 mg/kg; oral; Male; Harlan Sprague Dawley
[13] = system: Rat; test: concentration in plasma after dosing; conditions: 20 min; dosed: Thiodiglycolic Acid; 20 mg/kg; iv; Female; Harlan Sprague Dawley
[14] = system: Rat; test: concentration in thymus after dosing; conditions: 40 min; dosed: Thiodiglycolic Acid; 20 mg/kg; iv; Male; Harlan Sprague Dawley
[15] = system: Rat; test: concentration in liver after dosing; conditions: 3 h; dosed: Thiodiglycolic Acid; 20 mg/kg; iv; Female; Harlan Sprague Dawley
[16] = system: Rat; test: concentration in thymus after dosing; conditions: 20 min; dosed: Thiodiglycolic Acid; 20 mg/kg; iv; Female; F344
[17] = system: Rat; test: concentration in plasma after dosing; conditions: 9 h; dosed: Primidone; 130 mg/kg; oral; Male; F344
[18] = system: Rat; test: concentration in plasma after dosing; conditions: 6 h; dosed: Primidone; 130 mg/kg; oral; Female; F344

O=C(O)C(F)(F)C(F)(F)C(F)(F)C(F)(F)C(F)(F)C(F)(F)C(F)(F)C(F)(F)C(F)(F)F [Perfluorodecanoic acid]
concentration in kidney [1]: 22800 ng/g
concentration in kidney [2]: 2580 ng/g

CCCCOC(=O)c1ccccc1C(=O)O [Mono-n-butyl phthalate]
concentration in plasma [3]: 8110 ng/mL
concentration in plasma [4]: 31700 ng/mL
concentration in plasma [5]: 3210 ng/mL

O=C(O)C(Cl)Cl [dichloroacetic acid]
concentration in plasma ([6]; 2 min): 2970 ng/mL
concentration in plasma ([6]; 1.25 h): 54200 ng/mL
concentration in plasma [7]: 908 ng/mL

Cc1cccc(Nc2cc(Cl)nc(SCC(=O)O)n2)c1C
concentration in plasma ([8]; 5 min): 1060 ng/mL
concentration in plasma ([8]; 4 h): 477 ng/mL

ClCCOCOCCCl [Bis 2-Chloroethoxy Methane]
concentration in heart [9]: 179 ng/g

CC(C)(C)CC(C)(C)c1ccc(O)cc1 [octylphenol]
concentration in blood ([10]; 0.1573 h, 2 mg/kg, iv, male): 159 ng/mL
concentration in blood ([10]; 0.1576 h, 4 mg/kg, iv, male): 317 ng/mL
concentration in blood ([10]; 0.1581 h, 8 mg/kg, iv, male): 942 ng/mL
concentration in blood ([10]; 0.1679 h, 2 mg/kg, iv, female): 116 ng/mL
concentration in blood ([10]; 0.1763 h, 4 mg/kg, iv, female): 283 ng/mL
concentration in blood ([10]; 0.1763 h, 8 mg/kg, iv, female): 852 ng/mL
concentration in blood ([10]; 0.4805 h, 8 mg/kg, iv, male): 376 ng/mL
concentration in blood ([10]; 0.4823 h, 125 mg/kg, oral, male): 157 ng/mL
concentration in blood ([10]; 0.4883 h, 2 mg/kg, iv, male): 63.6 ng/mL
concentration in blood ([10]; 0.4888 h, 4 mg/kg, iv, male): 169 ng/mL
concentration in blood ([10]; 0.499 h, 250 mg/kg, oral, male): 244 ng/mL
concentration in blood ([10]; 0.5015 h, 50 mg/kg, oral, male): 63.7 ng/mL
concentration in blood ([10]; 0.5035 h, 125 mg/kg, male): 23.9 ng/mL
concentration in blood ([10]; 0.5155 h, 125 mg/kg, female): 19 ng/mL
concentration in blood ([10]; 0.5164 h, 2 mg/kg, iv, female): 67.8 ng/mL
concentration in blood ([10]; 0.5164 h, 4 mg/kg, iv, female): 141 ng/mL
concentration in blood ([10]; 0.5164 h, 8 mg/kg, iv, female): 430 ng/mL
concentration in blood ([10]; 0.519 h, 125 mg/kg, oral, female): 159 ng/mL
concentration in blood ([10]; 0.5202 h, 250 mg/kg, oral, female): 222 ng/mL
concentration in blood ([10]; 0.5529 h, 50 mg/kg, oral, female): 136 ng/mL
concentration in blood ([10]; 0.8196 h, 2 mg/kg, iv, male): 46.6 ng/mL
concentration in blood ([10]; 0.8247 h, 8 mg/kg, iv, male): 258 ng/mL
concentration in blood ([10]; 0.8286 h, 4 mg/kg, iv, male): 107 ng/mL
concentration in blood ([10]; 0.8355 h, 2 mg/kg, iv, female): 43.6 ng/mL
concentration in blood ([10]; 0.8355 h, 4 mg/kg, iv, female): 89.6 ng/mL
concentration in blood ([10]; 0.8397 h, 8 mg/kg, iv, female): 303 ng/mL
concentration in blood ([10]; 0.9901 h, 250 mg/kg, oral, male): 379 ng/mL
concentration in blood ([10]; 0.9911 h, 125 mg/kg, oral, male): 219 ng/mL
concentration in blood ([10]; 0.9923 h, 50 mg/kg, oral, male): 116 ng/mL
concentration in blood ([10]; 1.038 h, 125 mg/kg, oral, female): 271 ng/mL
concentration in blood ([10]; 1.051 h, 50 mg/kg, oral, female): 87.5 ng/mL
concentration in blood ([10]; 1.054 h, 125 mg/kg, male): 39.1 ng/mL
concentration in blood ([10]; 1.147 h, 8 mg/kg, iv, male): 210 ng/mL
concentration in blood ([10]; 1.155 h, 2 mg/kg, iv, male): 28.8 ng/mL
concentration in blood ([10]; 1.16 h, 4 mg/kg, iv, male): 69.7 ng/mL
concentration in blood ([10]; 1.167 h, 2 mg/kg, iv, female): 23.8 ng/mL
concentration in blood ([10]; 1.167 h, 4 mg/kg, iv, female): 71 ng/mL
concentration in blood ([10]; 1.167 h, 8 mg/kg, iv, female): 229 ng/mL
concentration in blood ([10]; 1.486 h, 2 mg/kg, iv, male): 24.8 ng/mL
concentration in blood ([10]; 1.487 h, 8 mg/kg, iv, male): 169 ng/mL
concentration in blood ([10]; 1.499 h, 8 mg/kg, iv, female): 170 ng/mL
concentration in blood ([10]; 1.5 h, 4 mg/kg, iv, male): 59.3 ng/mL
concentration in blood ([10]; 1.503 h, 2 mg/kg, iv, female): 25.3 ng/mL
concentration in blood ([10]; 1.503 h, 4 mg/kg, iv, female): 59 ng/mL
concentration in blood ([10]; 1.994 h, 2 mg/kg, iv, female): 16.1 ng/mL
concentration in blood ([10]; 1.994 h, 4 mg/kg, iv, female): 46.2 ng/mL
concentration in blood ([10]; 1.994 h, 8 mg/kg, iv, female): 128 ng/mL
concentration in blood ([10]; 2.003 h, 2 mg/kg, iv, male): 22.4 ng/mL
concentration in blood ([10]; 2.003 h, 4 mg/kg, iv, male): 39.3 ng/mL
concentration in blood ([10]; 2.004 h, 8 mg/kg, iv, male): 122 ng/mL
concentration in blood ([10]; 2.015 h, 125 mg/kg, male): 61.8 ng/mL
concentration in blood ([10]; 2.038 h, 125 mg/kg, oral, female): 235 ng/mL
concentration in blood ([10]; 2.052 h, 50 mg/kg, oral, female): 109 ng/mL
concentration in blood ([10]; 2.08 h, 250 mg/kg, oral, male): 305 ng/mL
concentration in blood ([10]; 2.081 h, 50 mg/kg, oral, male): 128 ng/mL
concentration in blood ([10]; 2.081 h, 125 mg/kg, oral, male): 171 ng/mL
concentration in blood ([10]; 2.989 h, 4 mg/kg, iv, male): 23.4 ng/mL
concentration in blood ([10]; 2.993 h, 8 mg/kg, iv, male): 72.1 ng/mL
concentration in blood ([10]; 2.998 h, 2 mg/kg, iv, female): 15.9 ng/mL
concentration in blood ([10]; 2.998 h, 4 mg/kg, iv, female): 33.8 ng/mL
concentration in blood ([10]; 3.015 h, 8 mg/kg, iv, female): 101 ng/mL
concentration in blood ([10]; 3.991 h, 4 mg/kg, iv, male): 12.2 ng/mL
concentration in blood ([10]; 3.996 h, 8 mg/kg, iv, male): 40.2 ng/mL
concentration in blood ([10]; 3.997 h, 8 mg/kg, iv, female): 57.6 ng/mL
concentration in blood ([10]; 4.014 h, 4 mg/kg, iv, female): 21.7 ng/mL
concentration in blood ([10]; 4.016 h, 50 mg/kg, oral, female): 70 ng/mL
concentration in blood ([10]; 4.022 h, 250 mg/kg, oral, female): 320 ng/mL
concentration in blood ([10]; 4.03 h, 250 mg/kg, oral, male): 260 ng/mL
concentration in blood ([10]; 4.031 h, 125 mg/kg, oral, male): 160 ng/mL
concentration in blood ([10]; 4.032 h, 50 mg/kg, oral, male): 85.1 ng/mL
concentration in blood ([10]; 4.038 h, 125 mg/kg, oral, female): 268 ng/mL
concentration in blood ([10]; 4.058 h, 125 mg/kg, male): 90.3 ng/mL
concentration in blood ([10]; 5.98 h, 125 mg/kg, male): 102 ng/mL
concentration in blood ([10]; 6.016 h, 50 mg/kg, oral, female): 69.2 ng/mL
concentration in blood ([10]; 6.02 h, 125 mg/kg, oral, female): 210 ng/mL
concentration in blood ([10]; 6.021 h, 250 mg/kg, oral, female): 268 ng/mL
concentration in blood ([10]; 6.034 h, 250 mg/kg, oral, male): 192 ng/mL
concentration in blood ([10]; 6.07 h, 50 mg/kg, oral, male): 87 ng/mL
concentration in blood ([10]; 6.07 h, 125 mg/kg, oral, male): 123 ng/mL
concentration in blood ([10]; 7.933 h, 50 mg/kg, oral, male): 77.3 ng/mL
concentration in blood ([10]; 8 h, 50 mg/kg, oral, female): 93.2 ng/mL
concentration in blood ([10]; 8.003 h, 125 mg/kg, oral, female): 205 ng/mL
concentration in blood ([10]; 8.003 h, 125 mg/kg, oral, male): 95.8 ng/mL
concentration in blood ([10]; 8.005 h, 250 mg/kg, oral, female): 357 ng/mL
concentration in blood ([10]; 8.019 h, 250 mg/kg, oral, male): 210 ng/mL
concentration in blood ([10]; 8.091 h, 125 mg/kg, male): 180 ng/mL
concentration in blood ([10]; 11.97 h, 250 mg/kg, oral, female): 373 ng/mL
concentration in blood ([10]; 11.98 h, 50 mg/kg, oral, female): 69.7 ng/mL
concentration in blood ([10]; 11.99 h, 50 mg/kg, oral, male): 37.2 ng/mL
concentration in blood ([10]; 11.99 h, 125 mg/kg, oral, male): 84.2 ng/mL
concentration in blood ([10]; 11.99 h, 250 mg/kg, oral, male): 157 ng/mL
concentration in blood ([10]; 12.02 h, 125 mg/kg, oral, female): 209 ng/mL
concentration in blood ([10]; 12.04 h, 125 mg/kg, male): 122 ng/mL
concentration in blood ([10]; 24.01 h, 50 mg/kg, oral, female): 24.7 ng/mL
concentration in blood ([10]; 24.02 h, 250 mg/kg, oral, male): 107 ng/mL
concentration in blood ([10]; 24.03 h, 50 mg/kg, oral, male): 7.77 ng/mL
concentration in blood ([10]; 24.03 h, 125 mg/kg, male): 54.7 ng/mL
concentration in blood ([10]; 24.03 h, 125 mg/kg, oral, female): 63.5 ng/mL
concentration in blood ([10]; 24.04 h, 125 mg/kg, oral, male): 28.8 ng/mL
concentration in blood ([10]; 24.04 h, 250 mg/kg, oral, female): 307 ng/mL

OCCC(F)(F)C(F)(F)C(F)(F)C(F)(F)C(F)(F)C(F)(F)C(F)(F)C(F)(F)F [Fluorotelomer alcohol 8+2]
concentration in kidney [11]: 5170 ng/g
concentration in kidney [12]: 631 ng/g

O=C(O)CSCC(=O)O [Thiodiglycolic Acid]
concentration in plasma [13]: 11700 ng/mL
concentration in thymus [14]: 3430 ng/g
concentration in liver [15]: 11500 ng/g
concentration in thymus [16]: 5640 ng/g

CCC1(c2ccccc2)C(=O)NC(=O)NC1=O [Phenobarbital]
concentration in plasma [17]: 9740 ng/mL
concentration in plasma [18]: 2330 ng/mL
